The numbers were not newly measured in patent publication US20250312272A1, “PHARMACEUTICAL FORMULATIONS FOR ORAL ADMINISTRATION AND METHODS OF MAKING AND USING THE SAME” (Aaryen Pharma LLC, priority 2024, published 2025), which cites them from elsewhere.

SMILES strings stand for the structures. Structures can show the parent of a compound that is named as a salt.

Consider `COc1ccc2c(c1)[C@]13CCCC[C@@H]1[C@H](C2)N(C)CC3` [dextromethorphan hydrobromide], for which the “solubility in water” value is given as “water soluble”.

As to `COc1ccccc1OCC(O)CO` (centres unmarked) [guaifenesin], the “solubility (descriptive term of Table 1)” value (in water) is “sparingly soluble”.
